Tests used:
Type in all cases: cell-based
[1] = test system: SPI1 type III protein secretion system (SopE-Bla secretion); test: Primary assay: Type III protein secretion of the chimeric SopE-Bla polypeptide by Salmonella enterica (nitrocefin hydrolysis); conditions: read-out: SopE IC50(uM)
From the text: Primary assay: Type III protein secretion of the chimeric SopÉ-Bla polypeptide by Salmonella enterica. This procedure is a cell-based assay that measures the type III-dependent secretion by Salmonella enterica of a plasmid-encoded chimeric polypeptide whose synthesis can be regulated, and which is endowed with an enzymatic activity that can be monitored calorimetrically by hydrolysis of a substrate that is unable to penetrate into the bacterial cytoplasm within the time constraints of the reaction. Thus, the colorimetric reaction is not influenced by SopÉ-Bla polypeptide in the bacterial cytoplasm. Instead, it effectively measures the amount of polypeptide that has been secreted from the S. enterica cytoplasm to the extracellular medium via type III system protein secretion.
The SopÉ-Bla recombinant polypeptide consists of two functionally distinct domains spliced together. The N-terminus domain is encoded by a polynucleotide region specifying the signal for type III secretion of the SopE polypeptide of S. enterica, an effector of the SPI1 type III protein secretion system. The C-terminus domain of SopÉ-Bla consists of a 263 amino acid peptide sequence that corresponds to the TEM-1 β-lactamase expressed by plasmid pBR322 but without its N-terminal signal sequence. The TEM-1 β-lactamase part of the SopÉ-Bla chimeric polypeptide is used as a reporter enzyme. It is capable of hydrolyzing nitrocefin resulting in a product whose accumulation can be monitored by colorimetric detection. The secretion of the SopÉ-Bla chimeric polypeptide from the cytoplasm to the extracellular medium is dependent on type III protein secretion.
For this procedure, cells grown under conditions known to favor a functional SPI1 secretion system are induced for expression of the SopÉ-Bla protein and grown either in the presence or in the absence of putative inhibitors for determined time. Nitrocefin is then added to the various cultures and its hydrolysis are used for quantitation. An inhibitor of Type III protein secretion is generally a compound that reduces the signal of the enzymatic reaction by decreasing the amount of SopÉ-Bla secreted into the extracellular medium.

[2] = test system: type III protein secretion system of P. aeruginosa PA103 (ExoU secretion); test: Tertiary assay: Type III-dependent secretion of ExoU by P. aeruginosa PA103 (SDS-PAGE band quantitation); conditions: Pseudomonas aeruginosa, ExoU secreted into extracellular medium
From the text: Tertiary assay: inhibition of Type III protein secretion of effectors from a Pseudomonas aeruginosa system. Type III protein secretion is used by P. aeruginosa to secrete several essential virulence determinants. One effector of the type III protein secretion system of P. aeruginosa PA103 is the virulence determinants ExoU.
The amount of Type III-dependent secretion of ExoU by P. aeruginosa PA103 can be determined in a cell-based assay by quantification of the 73.9 kDa ExoU protein secreted into the extracellular medium. Such quantitation can be achieved by growing strain PA103 in a deferrated medium in the presence of nitrilotriacetic acid (an inducer of Type III protein secretion in P. aeruginosa) and either in the presence or absence of putative inhibitors. After a prolonged growth period, the cells are sedimented and the supernatants concentrated by ammonium sulfate precipitation. The proteins in the resuspended pellets are separated by electrophoresis on SDS-polyacrylamide gels. After staining gels with Colloidal Blue™, the 73.9 kDa ExoU band is quantitated by scanning through an imager. The effects of inhibitors on the intensity of the ExoU band may be measured relative to that of untreated controls.

[3] = test system: SPI1 type III protein secretion system (SipB secretion); test: Secondary assay: Type III-dependent protein secretion of the SipB polypeptide by S. enterica (immunoblot); conditions: Salmonella enterica, read-out: SipB IC50(uM)
Protocol: Secondary assay: Type III-dependent protein secretion of the SipB polypeptide by S. enterica. The SipB protein of S. enterica is another effector of the SPI1 type III protein secretion system from S. enterica. In this cell-based procedure, the Type III-dependent secretion of SipB from the bacterial cytoplasm to the extracellular medium was measured through its reactivity with a cognate mouse monoclonal.
Salmonella enterica cells growing either in the presence or in the absence of inhibitors are induced for the production of SipB. Following an established period of growth the cells are sedimented and the amount of SipB present in the supernatant is quantified with a scanning imager following application of immunoblot techniques. Detection may employ an anti-SipB mouse monoclonal antibody (e.g., obtained from Jorge Galan, SUNY at Stony Brook, N.Y.) followed by treatment with commercially available sheep anti-mouse polyclonal antibody conjugated with horseradish peroxidase. Thereafter the membrane is treated with a peroxidase chemiluminescent substrate and exposed to film for an appropriate exposure time. Inhibition may be measured relative to untreated controls.

`CN(C)c1ccc(-c2cc(NC(=O)c3ccc(-c4ccccc4)cc3)c(=O)n(C(Cc3ccc(Cl)cc3)C(=O)O)c2)cc1` (stereo not drawn) [Compound 40, 2-[3-[(Biphenyl-4-carbonyl)amino]-5-(4-dimethylaminophenyl)-2-oxo-2H-pyridin-1-yl]-3-(4-chlorophenyl)propionic acid] gave an IC50 [1] of 2.8 µM, an IC50 [2] of 56.4 µM and an IC50 [3] of 10.2 µM.
`O=C(Nc1cc(-c2ccc(Oc3ccccc3)cc2)cn(C(Cc2ccc(Cl)cc2)C(=O)O)c1=O)c1ccc(-c2ccccc2)cc1` (stereo not drawn) [Compound 48, 2-[3-[(Biphenyl-4-carbonyl)amino]-2-oxo-5-(4-phenoxyphenyl)-2H-pyridin-1-yl]-3-(4-chlorophenyl)propionic acid] was tested, and the IC50 [1] was 1.2 µM, the IC50 [2] was 33.2 µM and the IC50 [3] was 35 µM.
For `O=C(Nc1cc(-c2ccc(Cl)c(Cl)c2)cn(C(Cc2ccc(Cl)cc2)C(=O)O)c1=O)c1ccc(-c2ccccc2)cc1` (stereo not drawn) [Compound 34, 2-[3-[(Biphenyl-4-carbonyl)amino]-5-(3,4-dichlorophenyl)-2-oxo-2H-pyridin-1-yl]-3-(4-chlorophenyl)propionic acid], the IC50 [1] was 8.7 µM, the IC50 [2] was > 100 µM and the IC50 [3] was 24.8 µM.
In the case of `O=C(Nc1cc(-c2ccccc2Oc2ccccc2)cn([C@@H](COCc2ccccc2)C(=O)O)c1=O)c1ccc(C(F)(F)F)cc1` [Compound 10, (S)-3-Benzyloxy-2-[2-oxo-5-(2-phenoxyphenyl)-3-(4-trifluoromethyl-benzoylamino)-2H-pyridin-1-yl]propionic acid], the IC50 [1] is reported as 27 µM, the IC50 [2] is reported as > 100 µM and the IC50 [3] is reported as 37.4 µM.
In the case of `O=C(Nc1cc(-c2ccc(-c3ccccc3)cc2)cn(C(CSCc2ccccc2)C(=O)O)c1=O)c1ccc(C(F)(F)F)cc1` (stereo in doubt) [Compound 14, (R)-3-Benzylsulfanyl-2-[5-biphenyl-4-yl-2-oxo-3-(4-trifluoromethylbenzoylamino)-2H-pyridi-1-yl]propionic acid], the IC50 [1] is reported as 31.3 µM, the IC50 [2] is reported as 31.6 µM and the IC50 [3] is reported as 7.1 µM.
For `O=C(Nc1cc(-c2cccc(C(F)(F)F)c2)cn(C(Cc2ccc(Cl)cc2)C(=O)O)c1=O)c1ccc(-c2ccccc2)cc1` (stereo not drawn) [Compound 22, 2-[3-[(Biphenyl-4-carbonyl)amino]-2-oxo-5-(3-trifluoromethylphenyl)-2H-pyridin-1-yl]-3-(4-chlorophenyl)propionic acid], the IC50 [1] was 3.4 µM, the IC50 [2] was > 100 µM and the IC50 [3] was 38.3 µM.
In the case of `O=C(Nc1cc(-c2ccc(Oc3ccccc3)cc2)cn(C(CSCc2ccccc2)C(=O)O)c1=O)c1ccc(C(F)(F)F)cc1` (stereo in doubt) [Compound 15, (R)-3-Benzylsulfanyl-2-[2-oxo-5-(4-phenoxyphenyl)-3-(4-trifluoromethyl-benzoylamino)-2H-pyridin-1-yl]propionic acid], the IC50 [1] is reported as 9.1 µM, the IC50 [2] is reported as 83.4 µM and the IC50 [3] is reported as 67.9 µM.
In the case of `CN(C)c1ccc(-c2cc(NC(=O)c3ccc(Oc4ccccc4)cc3)c(=O)n(C(Cc3ccc(Cl)cc3)C(=O)O)c2)cc1` (stereo not drawn) [Compound 53, 3-(4-Chlorophenyl)-2-[5-(4-dimethylaminophenyl)-2-oxo-3-(4-phenoxy-benzoylamino)-2H-pyridin-1-yl]propionic acid], the IC50 [1] is reported as 3.6 µM, the IC50 [2] is reported as 49 µM and the IC50 [3] is reported as > 100 µM.
For `O=C(Nc1cc(-c2ccc(Cl)cc2)cn(C(Cc2ccc(Cl)cc2)C(=O)O)c1=O)c1ccc(-c2ccccc2)cc1` (stereo not drawn) [Compound 33, 2-[3-[(Biphenyl-4-carbonyl)amino]-5-(4-chlorophenyl)-2-oxo-2H-pyridin-1-yl]-3(4-chlorophenyl)propionic acid], the IC50 [1] was 7.6 µM, the IC50 [2] was > 50 µM and the IC50 [3] was 39 µM.
`O=C(Nc1cc(-c2ccc(Oc3ccccc3)cc2)cn([C@@H](Cc2ccccc2)C(=O)O)c1=O)c1ccc(C(F)(F)F)cc1` [Compound 4, (S)-2-[2-Oxo-5-(4-phenoxyphenyl)-3-(4-trifluoromethylbenzoylamino)-2H-pyridin-1-yl]-3-phenylpropionic acid] gave an IC50 [1] of 6.3 µM, an IC50 [2] of 84.7 µM and an IC50 [3] of 84.7 µM.

From patent publication US7087622B2, “Pyridone compounds as inhibitors of bacterial type III protein secreation systems” (priority 2004, dated 2006)
